Experimental data as given in ChEMBL document CHEMBL5604062, “ASAP - ZIKV NS2B-NS3 protease fluorescence dose response” (2024).
“And” between values parts separate entries of the source, which are not always exact repeats. Identical values can stand only once.

Molecular target: Nonstructural protein 3 (Zika virus, UniProt A0A024AXB9)
Experiment: Functional biochemical assay to identify treatments for viral infectious disease that targets Zika NS2B-NS3 protease. Utilizing a direct enzyme activity measurement method, reading the fluorescence intensity is used to characterize the relative potency of inhibitors as IC50.
Set-up: species or system PRVABC59

Nonstructural protein 3, sequence (A0A024AXB9 whole entry): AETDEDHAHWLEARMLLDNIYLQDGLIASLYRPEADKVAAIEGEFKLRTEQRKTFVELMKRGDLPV

| IC50 | SMILES |
| --- | --- |
| 94.4 µM | NCc1cccc(NC(=O)[C@H]2[C@H]3CCCC[C@H]3[C@@H]2NC(=O)OCc2ccccc2)c1 |
| 70.7 µM | O=C(O)c1cc(Cl)ccc1NS(=O)(=O)c1ccc(Oc2ccccc2)cc1 |
| > 99.5 µM | CCNC(=O)[C@@H](NC(=O)OCc1ccccc1)c1ccc(OCc2ccccc2)cc1 |
| > 99.5 µM | O=C(O)c1cc(Cl)ccc1S(=O)(=O)Nc1ccc(N2CCCCCC2)cc1 |
| > 99.5 µM | NCc1cccc(NC(=O)[C@H]2CCCN(C(=O)OCc3ccccc3)C2)c1 |
| > 99.5 µM | CN(C)CCC(=O)N1CCC([C@@H](NC(=O)OCc2ccccc2)C(=O)Nc2cccc(CN)c2)CC1 |
| 61.6 µM | Cc1cc(C(=O)Nc2cccc(CN)c2)c2cnn(-c3ccc(F)cc3)c2n1 |
| > 99.5 µM | O=C(NC[C@H]1CCCO1)c1cc(Cl)ccc1NS(=O)(=O)c1ccc(Oc2ccccc2Cl)cc1 |
| 46 µM | NCc1cccc(NC(=O)Cc2cc(Cl)cc(NC(=O)OCc3ccccc3)c2)c1 |
| > 99.5 µM | CCc1cc(C(=O)Nc2cccc(CN)c2)sc1C |
| > 25 µM | Cc1c(C(=O)Nc2cc(C(=O)N3Cc4cn[nH]c4C3)ccn2)cc(C2CC2)n1C |
| > 99.5 µM | Cn1ncc(CN2CCC([C@H](NC(=O)OCc3ccccc3)C(=O)Nc3cccc(CN)c3)CC2)n1 |
| > 99.5 µM | FC(F)(F)Oc1cc(Cl)cc2c(CN3CCC(c4cscn4)CC3)c[nH]c12 |
| > 99.5 µM | Cc1c(C(=O)Nc2cc(CCCN)ccn2)cc(C2CCCCC2)n1C |
| > 25 µM | O=C1Cc2c(cccc2C(=O)Nc2cnc(OC3CCC3)nc2)N1 |
| > 99.5 µM | CC(C)c1cc(-c2ccc3[nH]c(C(=O)O)cc3c2)cc(S(N)(=O)=O)c1 |
| > 25 µM | O=C1C[C@H]2[C@H](CCCN2C(=O)Nc2ccc3c(c2)CNC3)N1 |
| > 99.5 µM | CCn1c(=O)c(N2C[C@]3(CO)C[C@H]2CO3)nc2ccccc21 |
| > 99.5 µM | NCc1cccc(NC(=O)[C@H](NC(=O)OCc2ccccc2)C2CCN(C(=O)[C@H]3C[C@H](O)C3)CC2)c1 |
| > 99.5 µM | O=C(O)c1cc(Cl)ccc1S(=O)(=O)NC1CCN(S(=O)(=O)Cc2ccccc2)CC1 |
| 9.31 µM | Fc1cc(CNc2ccc3c(c2)CNC3)c2cc[nH]c2c1 |
| > 99.5 µM | CNC(=O)[C@H](Nc1ccccn1)c1cc(Cl)cc(CN)c1 |
| > 99.5 µM | C[C@]1(C(=O)N[C@H](C(=O)Nc2cccc(CN)c2)c2ccc(OCc3ccccc3)cc2)CCCO1 |
| > 99.5 µM | Cc1ccc(NS(=O)(=O)c2ccc(Oc3ccccc3Cl)cc2)cc1CN |
| > 99.5 µM | CN1CCN(Cc2cccc(CNC(=O)[C@@H](NC(=O)OCc3ccccc3)c3ccc(OCc4ccccc4)cc3)c2)CC1 |
| > 99.5 µM | O=C(Nc1cc(Cl)cc(C(=O)NC2(c3nnn[nH]3)CC2)c1)OCc1ccccc1 |

| IC50 | SMILES |
| --- | --- |
| 0.886 µM | NCc1cccc(NC(=O)c2cc(Cl)cc3[nH]ncc23)c1 |
| > 99.5 µM | c1nc(C2CCN(Cc3cc(C4CCOCC4)[nH]n3)CC2)cs1 |
| > 99.5 µM | CC(C)(C)c1cc(N2CCN(c3cccc4[nH]ncc34)CC2)nc(C(=O)O)n1 |
| 0.099 µM and 0.018 µM and 0.048 µM | N#Cc1cccc(-c2nc3c(C(=O)Nc4ccc5c(c4)CNC5)cc(Cl)cc3[nH]2)c1 |
| > 99.5 µM | CCn1c(=O)c(N2CC[C@H](CO)C2)nc2ccc(C(=O)NS(C)(=O)=O)cc21 |
| > 99.5 µM | NCc1cccc(NC(=O)c2nc(C3CC3)n(-c3ccccc3Cl)n2)c1 |
| > 99.5 µM | Clc1ccc2[nH]cc(Cc3ccc(-c4nn[nH]n4)cc3)c2c1 |
| > 99.5 µM | CCN1C(=O)CCc2cc(NS(=O)(=O)c3ccc(Cl)cc3C(=O)O)ccc21 |
| > 99.5 µM | NS(=O)(=O)c1ccc(C(F)F)cc1-c1ccc2[nH]c(C(=O)O)cc2c1 |
| 14.2 µM and 11.5 µM | NCc1ccc(CNC(=O)[C@@H](NC(=O)OCc2ccccc2)c2ccc(OCc3ccccc3)cc2)cc1 |
| > 99.5 µM | CCn1ccnc(N2CC[C@@H](CC#N)C2)c1=O |
| > 25 µM | O=C(Nc1ccc2c(c1)CNC2)c1nc(C(F)(F)F)cs1 |
| 7.07 µM | NCc1cccc(NC(=O)c2cc(Br)cc(-n3cnnn3)c2)c1 |
| 0.061 µM and 0.053 µM | COc1ccc(Cl)cc1[C@H](Nc1ccc2c(c1)CNC2)C(=O)NCC(F)F |
| > 99.5 µM | [O-][S@@+](Cc1ncccn1)c1ncccc1Br |
| > 99.5 µM | O=C(O)c1cc(Cl)ccc1S(=O)(=O)NC1CCC(N2CCCCC2=O)CC1 (stereo not given) |
| > 99.5 µM | C[C@@H]1C[C@H](NS(=O)(=O)c2ccc(Cl)cc2C(=O)O)C[C@H](C)N1Cc1ccccc1 |
| 0.216 µM | O=C(Nc1ccc2c(c1)CNC2)c1cc(Cl)cc(C2CC2)c1 |
| > 50.2 µM | O=Cc1ccc(N2CCC(C(=O)N3CCN(CCc4ccccc4)CC3)CC2)cc1 |
| > 25 µM | O=C(Nc1cc(-c2cccnc2)ccn1)c1cc(C2CC2)on1 |
| 0.187 µM | O=C(Nc1ccc2c(c1)CNC2)c1cc(Cl)cc(N2CCCC2=O)c1 |
| 72 µM | NCc1cccc(NC(=O)[C@H](NC(=O)OCc2ccccc2)c2ccc(Br)cc2F)c1 |
| 39.9 µM | Cc1c(C(=O)Nc2cc(CCCN)ccn2)cc(C2CC2)n1C |
| 7.24 µM | O=C(Nc1cc(Cl)cc(C(=O)Nc2cc(Br)cc(-c3nnn[nH]3)c2)c1)OCc1ccccc1 |
| 20.8 µM | Cn1ncc(C(=O)Nc2cc(-c3cccnc3)ccn2)c1C1CC1 |
| 10.4 µM | O=C(O)c1cc(Cl)c(F)cc1NS(=O)(=O)c1ccc(Oc2ccccc2Cl)cc1 |

| IC50 | SMILES |
| --- | --- |
| > 25 µM | Cc1c(C(=O)Nc2ncc3c(c2C#N)CCOC3)cc(C2CC2)n1C |
| > 99.5 µM | CC(C)[C@H](NC(=O)c1cc(Cl)cc(NC(=O)OCc2ccccc2)c1)C(=O)O |
| > 25 µM | C=CC[C@H]1NCc2cc(NC(=O)c3ccc4c(c3)CC(=O)N4)ccc21 |
| > 25 µM | O=C(Nc1ccc2c(c1)C(=O)OC2)c1ccc2c(c1)CNC2 |
| 26.8 µM | COCC=Cc1cccc([C@@H](NC(=O)OCc2ccccc2)C(=O)Nc2cccc(CN)c2)c1 |
| 91.1 µM | Cc1nc(-c2ccc(Cl)cc2)sc1C(=O)Nc1cccc(CN)c1 |
| 1.1 µM | OCC#C[C@H](Nc1ccc2c(c1)CNC2)c1cc(Cl)cc2[nH]ncc12 |
| > 99.5 µM | CC(C)Nc1nc2ccc(C(=O)Nc3nnnn3-c3ccccn3)cc2[nH]1 |
| > 99.5 µM | Cn1nc2c(c1NC(=O)[C@@H](NC(=O)OCc1ccccc1)c1ccc(OCc3ccccc3)cc1)CNC2 |
| > 99.5 µM | O=C(Nc1cc(Cl)cc(C(=O)Nc2cncc(C(=O)O)c2)c1)OCc1ccccc1 |
| > 25 µM | O=C1Cc2cc(C(=O)Nc3ccc4c(c3)CNC4)c(Cl)cc2N1 |
| > 99.5 µM | Cc1nnc(CN2CCC([C@H](NC(=O)OCc3ccccc3)C(=O)Nc3cccc(CN)c3)CC2)s1 |
| > 25 µM | O=C1Cc2c(cccc2C(=O)Nc2cc([C@H]3CCOC3)ccn2)N1 |
| > 99.5 µM | NC(=O)c1ccccc1NS(=O)(=O)c1ccc(Oc2ccccc2Cl)cc1 |
| 0.176 µM | O=C(Nc1ccc2c(c1)CNC2)c1cc(Cl)cc2nn(C3CCC3)cc12 |
| 6.67 µM | NCc1cc(NC(=O)c2cc(Cl)cc(NC(=O)OCc3ccccc3)c2)cc(C2CC2)c1 |
| 12.1 µM | CC(=Cc1cccc(-c2nnn[nH]2)c1)c1cc(Cl)cc(NC(=O)OCc2ccccc2)c1 |
| > 25 µM | O=C1OCc2ccc(NC(=O)[C@H]3CNCc4[nH]ncc43)cc21 |
| 34.1 µM | O=c1[nH]ncn1C1CCN(Cc2c[nH]c3ccccc23)CC1 |
| > 99.5 µM | N[C@H]1CC[C@@H](NC(=O)[C@@H](NC(=O)OCc2ccccc2)c2ccc(OCc3ccccc3)cc2)C1 |
| > 99.5 µM | NCCc1nsc(NC(=O)c2cc(Cl)cc(NC(=O)OCc3ccccc3)c2)n1 |
| 32.3 µM | O=C1OCc2ccc(NC(=O)c3cc(Cl)cc4[nH]ncc34)cc21 |
| > 99.5 µM | CCn1ccnc(N2CC[C@H](c3c[nH]c4ccccc34)C2)c1=O |
| > 99.5 µM | O=c1ccc(N2CCN(Cc3c[nH]c4ccccc34)CC2)c[nH]1 |
| 61.7 µM | O=C(Nc1ccc2c(c1)CNC2)c1ncc(Br)s1 |
| 98.1 µM | COC(=O)C1(S(=O)(=O)N[C@H](C(=O)Nc2cccc(CN)c2)c2ccc(OCc3ccccc3)cc2)CCC1 |

| IC50 | SMILES |
| --- | --- |
| > 99.5 µM | CC(=O)Nc1cccc(-c2ccc(S(=O)(=O)Nc3ccc(Cl)cc3C(=O)O)cc2)c1 |
| 0.2 µM | CS(=O)(=O)c1cc2c(cc1NC(=O)c1cc(F)cc3[nH]ncc13)CNC2 |
| > 99.5 µM | CC(C)N1CCc2nc(NC(=O)[C@H](NC(=O)OCc3ccccc3)c3ccc(OCc4ccccc4)cc3)sc2C1 |
| > 99.5 µM | NCc1cccc(NC(=O)c2cc(N)cc(NC(=O)OCc3ccccc3)c2)c1 |
| 6.08 µM | O=C(Nc1ccc2c(c1)CNC2)c1nccc2[nH]ncc12 |
| > 99.5 µM | NCc1cccc(NC(=O)[C@H]2CCc3nnc(-c4ccc(F)cc4)n3C2)c1 |
| > 99.5 µM | O=C(Nc1cc(Cl)cc(-c2cc3cc(C(=O)O)ncn3c2)c1)OCc1ccccc1 |
| > 99.5 µM | NCc1cccc(NC(=O)c2cccc(NC(=O)OCc3ccccc3)n2)c1 |
| > 25 µM | Cn1nc([C@H](C#N)Nc2cccc([C@H]3CCOC3)c2)cc1C1CC1 |
| > 99.5 µM | C[C@H]1CC[C@@](Cc2nc3ccccc3[nH]2)(C(=O)Nc2cccc(CN)c2)CC1 |
| > 99.5 µM | CCOc1cc(N2CCN(C)CC2)ccc1NS(=O)(=O)c1ccc(Cl)cc1C(=O)O |
| > 99.5 µM | NCc1ccc(Oc2ccc(S(=O)(=O)Nc3ccc(Cl)cc3C(=O)NCC(F)(F)F)cc2)cc1 |
| 2.41 µM and 6.85 µM | O=C1Cc2cc(C(=O)Nc3ccc4c(c3)CNC4)ccc2N1 |
| > 25 µM | Cc1c(C(=O)Nc2ccc3c(c2)CS(=O)(=O)C3)cc(C2CC2)n1C |
| > 99.5 µM | Cc1cc(C)cc(C(=O)N2CCC(NS(=O)(=O)c3ccc(Cl)cc3C(=O)O)CC2)c1 |
| > 99.5 µM | CC(C)Oc1cncc(N2CC[C@@H](CO)C2)c1 |
| > 99.5 µM | NCc1cccc(NC(=O)CN2CCN(C(=O)OCc3ccccc3)CC2)c1 |
| > 198 µM | N=C(N)NCCc1ccc(NC(=O)c2ccccc2)cc1 |
| > 25 µM | Cc1c(C(=O)Nc2cc(Br)c3c(c2)COC3)cc(C2CC2)n1C |
| > 99.5 µM | Cc1cc(C(=O)N[C@@H]2CC[C@@H]3CN(C)C[C@@H]32)sc1C=O |
| 0.151 µM | O=C(Nc1ccc2c(c1)CNC2)c1cc(Cl)cc2c1NCCC2 |
| > 99.5 µM | CC[C@H](CO)NC(=O)Cn1ccnc(N2CC[C@H](CO)C2)c1=O |
| > 99.5 µM | Cn1cc(NC(=O)c2cc(Cl)cc(NC(=O)OCc3ccccc3)c2)cn1 |

| SMILES | IC50 |
| --- | --- |
| Cn1cnc2c1CN(Cc1ccc3c(c1)CCNCC3)CC2 | > 99.5 µM |
| C[C@@H](Cc1c[nH]c2ccccc12)N1CCC(c2nc3ccccc3s2)CC1 | > 99.5 µM |
| O=C(Nc1ccccc1)Oc1ccccc1 [PHENYL PHENYLCARBAMATE] | > 100 µM |
| c1ccc2c(CN3CCCCC3)c[nH]c2c1 | > 99.5 µM |
